Molecules are shown by their SMILES.

Experiment [1] relates to BaF3-FL KIT D816V or BaF3-FL KIT V560G/D816V cell line. The experiment in a line: Cell-based assays of c-Kit mutant kinase activity (cell growth, ATPlite). As to conditions: at least one of the c-kit cell assays of Example 26. Summed up: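 BaF3 cells dependent on full-length human KIT (D816V or V560G/D816V) seeded at 1×10^4 cells/well in RPMI with 10% FBS. Eight-point 1:3 dilutions from 10 μM top final (0.2% DMSO), 3 days at 37° C., 5% CO2. ATPlite luminescence gave IC50.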

The target in experiment [2] is c-kit kinase (Homo sapiens (Human), UniProt P10721). In words: c-Kit biochemical assay (AlphaScreen). As to conditions: c-kit biochemical inhibitory activity. Put shortly:
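AlphaScreen of biotin-(E4Y)3 (100 nM) phosphorylation by c-kit (0.1 ng) in HEPES pH 7.2, Mg/Mn, 10 μM ATP, 5% DMSO, 1 h at room temperature; variant uses 100 μM ATP, 30 nM biotin-(E4Y)10, 1 ng enzyme. PY20 acceptor/streptavidin donor signal versus 8-point concentration gives IC50.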

Chain of c-kit kinase (P10721 26-976): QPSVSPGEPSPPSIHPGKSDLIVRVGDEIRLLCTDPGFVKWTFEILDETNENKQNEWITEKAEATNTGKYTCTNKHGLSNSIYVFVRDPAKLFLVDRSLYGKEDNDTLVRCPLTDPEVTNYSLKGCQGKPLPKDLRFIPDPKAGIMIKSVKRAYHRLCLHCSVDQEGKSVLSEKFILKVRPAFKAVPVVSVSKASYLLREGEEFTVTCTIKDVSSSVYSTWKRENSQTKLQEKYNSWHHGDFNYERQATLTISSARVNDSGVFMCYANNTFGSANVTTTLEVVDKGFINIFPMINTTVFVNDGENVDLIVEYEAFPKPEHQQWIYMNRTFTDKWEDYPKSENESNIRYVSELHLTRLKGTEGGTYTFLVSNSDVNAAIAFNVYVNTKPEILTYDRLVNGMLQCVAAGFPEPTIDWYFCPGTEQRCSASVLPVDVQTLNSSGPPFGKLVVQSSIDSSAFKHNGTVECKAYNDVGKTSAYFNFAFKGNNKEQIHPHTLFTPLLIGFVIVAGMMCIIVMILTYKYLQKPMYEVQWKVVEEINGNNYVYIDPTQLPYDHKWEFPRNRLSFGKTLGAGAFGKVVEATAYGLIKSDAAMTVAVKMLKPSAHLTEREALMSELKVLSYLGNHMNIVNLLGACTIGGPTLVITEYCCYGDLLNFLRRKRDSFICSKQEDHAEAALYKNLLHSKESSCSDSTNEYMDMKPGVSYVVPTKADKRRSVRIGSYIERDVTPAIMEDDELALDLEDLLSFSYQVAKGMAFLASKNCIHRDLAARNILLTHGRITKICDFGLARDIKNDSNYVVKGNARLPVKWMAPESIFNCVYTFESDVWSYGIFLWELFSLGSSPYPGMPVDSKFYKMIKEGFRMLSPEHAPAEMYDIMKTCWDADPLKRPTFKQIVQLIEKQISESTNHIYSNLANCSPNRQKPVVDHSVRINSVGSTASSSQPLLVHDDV

As a reminder, the IC50 is the concentration needed to halve the response being measured. Lower therefore signals higher potency. In the case of `Cc1cc(C(=O)Nc2cnc3[nH]c(N4CCOCC4)cc3c2)[nH]n1` [P-2058, 3-methyl-N-(2-morpholino-1H-pyrrolo[2,3-b]pyridin-5-yl)-1H-pyrazole-5-carboxamide], the IC50 in experiment [1] is less than 10 µM; in experiment [2] it was 10 to 200 µM.

For the compound `Cc1n[nH]c(C(=O)Nc2cnc3[nH]c(-c4cnc(N5CCN(C)CC5)nc4)cc3c2)c1C` [P-2160, 3,4-dimethyl-N-[2-[2-(4-methylpiperazin-1-yl)pyrimidin-5-yl]-1H-pyrrolo[2,3-b]pyridin-5-yl]-1H-pyrazole-5-carboxamide], the IC50 in experiment [1] is less than 10 µM; in experiment [2], 1 to 10 µM.

For the compound `Cc1n[nH]c(C(=O)Nc2cnc3[nH]nc(-c4cccc(N5CCN(C(=O)OC(C)(C)C)CC5)c4)c3c2)c1C` [P-2162, tert-butyl 4-[3-[5-[(3,4-dimethyl-1H-pyrazole-5-carbonyl)amino]-1H-pyrazolo[3,4-b]pyridin-3-yl]phenyl]piperazine-1-carboxylate], the IC50 in experiment [1] was less than 10 µM; in experiment [2], 0.0001 to 1 µM.

Consider `Cc1n[nH]c(C(=O)Nc2cnc3[nH]c(-c4ccnc(C(C)C)c4)cc3c2)c1C` [P-2163, N-[2-(2-isopropyl-4-pyridyl)-1H-pyrrolo[2,3-b]pyridin-5-yl]-3,4-dimethyl-1H-pyrazole-5-carboxamide], for which the IC50 in experiment [1] is less than 10 µM; in experiment [2], 0.0001 to 1 µM.

Take `[2H]c1c([2H])c([2H])c(-c2cc3cc(NC(=O)c4[nH]nc(C)c4C)cnc3[nH]2)c([2H])c1[2H]` [P-2164, 3,4-dimethyl-N-[2-(2,3,4,5,6-pentadeuteriophenyl)-1H-pyrrolo[2,3-b]pyridin-5-yl]-1H-pyrazole-5-carboxamide]: the IC50 in experiment [1] was less than 10 µM; in experiment [2] it was 1 to 10 µM.

For `Cc1n[nH]c(C(=O)Nc2cnc3[nH]c(-c4c(C)nn(C)c4C)cc3c2)c1C` [P-2165, 3,4-dimethyl-N-[2-(1,3,5-trimethylpyrazol-4-yl)-1H-pyrrolo[2,3-b]pyridin-5-yl]-1H-pyrazole-5-carboxamide], the half-inhibitory concentration (IC50) in experiment [1] is less than 10 µM; in experiment [2] it was 0.0001 to 1 µM.

For `Cc1n[nH]c(C(=O)Nc2cnc3[nH]nc(-c4cccc(N5CCNCC5)c4)c3c2)c1C` [P-2166, 3,4-dimethyl-N-[3-(3-piperazin-1-ylphenyl)-1H-pyrazolo[3,4-b]pyridin-5-yl]-1H-pyrazole-5-carboxamide], the IC50 in experiment [1] is less than 10 µM; in experiment [2], 0.0001 to 1 µM.

On to `Cc1n[nH]c(C(=O)Nc2cnc3[nH]c(-c4c(C)n[nH]c4C)cc3c2)c1C` [P-2167, N-[2-(3,5-dimethyl-1H-pyrazol-4-yl)-1H-pyrrolo[2,3-b]pyridin-5-yl]-3,4-dimethyl-1H-pyrazole-5-carboxamide], for which the IC50 in experiment [1] is less than 10 µM; in experiment [2], 0.0001 to 1 µM.

For `Cc1nn(C2COC2)cc1-c1cc2cc(NC(=O)c3[nH]nc(C)c3C)cnc2[nH]1` [P-2168, 3,4-dimethyl-N-[2-[3-methyl-1-(oxetan-3-yl)pyrazol-4-yl]-1H-pyrrolo[2,3-b]pyridin-5-yl]-1H-pyrazole-5-carboxamide], the IC50 in experiment [1] was less than 10 µM; in experiment [2], 0.0001 to 1 µM.

Consider `Cc1n[nH]c(C(=O)Nc2cnc3[nH]c(-c4ccc(F)c(-c5nn[nH]n5)c4)cc3c2)c1C` [P-2174, N-[2-[4-fluoro-3-(2H-tetrazol-5-yl)phenyl]-1H-pyrrolo[2,3-b]pyridin-5-yl]-3,4-dimethyl-1H-pyrazole-5-carboxamide], for which the IC50 in experiment [1] was less than 10 µM; in experiment [2], 1 to 10 µM.

On to `Cc1n[nH]c(C(=O)Nc2cnc3[nH]c(-c4cccnc4C(F)(F)F)cc3c2)c1C` [P-2176, 3,4-dimethyl-N-[2-[2-(trifluoromethyl)-3-pyridyl]-1H-pyrrolo[2,3-b]pyridin-5-yl]-1H-pyrazole-5-carboxamide], for which the 50% inhibitory concentration (IC50) was less than 10 µM in experiment [1] and 10 to 200 µM in experiment [2].

As for `CCc1cc(-c2cc3cc(NC(=O)c4[nH]nc(C)c4C)cnc3[nH]2)ccn1` [P-2177, N-[2-(2-ethyl-4-pyridyl)-1H-pyrrolo[2,3-b]pyridin-5-yl]-3,4-dimethyl-1H-pyrazole-5-carboxamide], the IC50 was less than 10 µM in experiment [1] and 0.0001 to 1 µM in experiment [2].

`CCc1ccc(-c2cc3cc(NC(=O)c4[nH]nc(C)c4C)cnc3[nH]2)cn1` [P-2178, N-[2-(6-ethyl-3-pyridyl)-1H-pyrrolo[2,3-b]pyridin-5-yl]-3,4-dimethyl-1H-pyrazole-5-carboxamide]: the IC50 is less than 10 µM in experiment [1] and 10 to 200 µM in experiment [2].

For `Cc1n[nH]c(C(=O)Nc2cnc3[nH]c(-c4ccnc5c4OCCO5)cc3c2)c1C` [P-2179, N-[2-(2,3-dihydro-[1,4]dioxino[2,3-b]pyridin-8-yl)-1H-pyrrolo[2,3-b]pyridin-5-yl]-3,4-dimethyl-H-pyrazole-5-carboxamide], the IC50 in experiment [1] was less than 10 µM; in experiment [2], 1 to 10 µM.

On to `Cc1n[nH]c(C(=O)Nc2cnc3[nH]c(-c4ccccc4C(F)(F)F)cc3c2)c1C` [P-2180, 3,4-dimethyl-N-[2-[2-(trifluoromethyl)phenyl]-1H-pyrrolo[2,3-b]pyridin-5-yl]-1H-pyrazole-5-carboxamide], for which the IC50 in experiment [1] was less than 10 µM; in experiment [2], 1 to 10 µM.

`Cc1ccc(-c2cc3cc(NC(=O)c4[nH]nc(C)c4C)cnc3[nH]2)c(C)c1` [P-2181, N-[2-(2,4-dimethylphenyl)-1H-pyrrolo[2,3-b]pyridin-5-yl]-3,4-dimethyl-1H-pyrazole-5-carboxamide]: the 50% inhibitory concentration (IC50) in experiment [1] is less than 10 µM; in experiment [2], 10 to 200 µM.

Turning to `Cc1n[nH]c(C(=O)Nc2cnc3[nH]c(-c4ccccc4OC(F)(F)F)cc3c2)c1C` [P-2182, 3,4-dimethyl-N-[2-[2-(trifluoromethoxy)phenyl]-1H-pyrrolo[2,3-b]pyridin-5-yl]-1H-pyrazole-5-carboxamide], the results for the IC50 in experiment [1] and in experiment [2] were less than 10 µM and 1 to 10 µM, respectively.

Consider `COc1cncc(-c2cc3cc(NC(=O)c4[nH]nc(C)c4C)cnc3[nH]2)c1` [P-2183, N-[2-(5-methoxy-3-pyridyl)-1H-pyrrolo[2,3-b]pyridin-5-yl]-3,4-dimethyl-1H-pyrazole-5-carboxamide], for which the IC50 in experiment [1] was less than 10 µM; in experiment [2], 10 to 200 µM.

With `Cc1cncc(-c2cc3cc(NC(=O)c4[nH]nc(C)c4C)cnc3[nH]2)c1` [P-2184, 3,4-dimethyl-N-[2-(5-methyl-3-pyridyl)-1H-pyrrolo[2,3-b]pyridin-5-yl]-1H-pyrazole-5-carboxamide], the results for the IC50 in experiment [1] and in experiment [2] were less than 10 µM and 1 to 10 µM, respectively.

Take `Cc1n[nH]c(C(=O)Nc2cnc3[nH]c(-c4ccnc(N5CCN(S(C)(=O)=O)CC5)c4)cc3c2)c1C` [P-2186, 3,4-dimethyl-N-[2-[2-(4-methylsulfonylpiperazin-1-yl)-4-pyridyl]-1H-pyrrolo[2,3-b]pyridin-5-yl]-1H-pyrazole-5-carboxamide]: the IC50 in experiment [1] is less than 10 µM; in experiment [2], 1 to 10 µM.

In the case of `Cc1n[nH]c(C(=O)Nc2cnc3[nH]c(-c4ccnc(N5CCN(C(=O)C6CC6)CC5)c4)cc3c2)c1C` [P-2187, N-[2-[2-[4-(cyclopropanecarbonyl)piperazin-1-yl]-4-pyridyl]-1H-pyrrolo[2,3-b]pyridin-5-yl]-3,4-dimethyl-1H-pyrazole-5-carboxamide], the IC50 in experiment [1] was less than 10 µM; in experiment [2], 1 to 10 µM.

With `Cc1n[nH]c(C(=O)Nc2cnc3[nH]c(-c4ccnc(N5CCN(C(=O)CC#N)CC5)c4)cc3c2)c1C` [P-2189, N-[2-[2-[4-(2-cyanoacetyl)piperazin-1-yl]-4-pyridyl]-1H-pyrrolo[2,3-b]pyridin-5-yl]-3,4-dimethyl-1H-pyrazole-5-carboxamide], the IC50 is less than 10 µM in experiment [1] and 0.0001 to 1 µM in experiment [2].

Take `Cc1n[nH]c(C(=O)Nc2cnc3[nH]c(-c4ccc(F)cc4OC(F)F)cc3c2)c1C` [P-2268, N-[2-[2-(difluoromethoxy)-4-fluoro-phenyl]-1H-pyrrolo[2,3-b]pyridin-5-yl]-3,4-dimethyl-1H-pyrazole-5-carboxamide]: the half-maximal inhibitory concentration (IC50) in experiment [1] is less than 10 µM; in experiment [2] it was 1 to 10 µM.

`Cc1n[nH]c(C(=O)Nc2cnc3[nH]c(-c4cncc(C#N)c4)cc3c2)c1C` [P-2270, N-[2-(5-cyano-3-pyridyl)-1H-pyrrolo[2,3-b]pyridin-5-yl]-3,4-dimethyl-1H-pyrazole-5-carboxamide]: the IC50 in experiment [1] is less than 10 µM; in experiment [2] it was 10 to 200 µM.

`Cc1n[nH]c(C(=O)Nc2cnc3[nH]c(C4=CCOCC4)cc3c2)c1C` [P-2271, N-[2-(3,6-dihydro-2H-pyran-4-yl)-1H-pyrrolo[2,3-b]pyridin-5-yl]-3,4-dimethyl-1H-pyrazole-5-carboxamide]: the IC50 in experiment [1] was less than 10 µM; in experiment [2] it was 0.0001 to 1 µM.

`Cc1n[nH]c(C(=O)Nc2cnc3[nH]c(-c4cnccc4C(N)=O)cc3c2)c1C` [P-2272, 3-[5-[(3,4-dimethyl-1H-pyrazole-5-carbonyl)amino]-1H-pyrrolo[2,3-b]pyridin-2-yl]pyridine-4-carboxamide]: the IC50 in experiment [1] was less than 10 µM; in experiment [2], 10 to 200 µM.

Regarding `Cc1n[nH]c(C(=O)Nc2cnc3[nH]c(-c4cccc5c4OCC5)cc3c2)c1C` [P-2273, N-[2-(2,3-dihydrobenzofuran-7-yl)-1H-pyrrolo[2,3-b]pyridin-5-yl]-3,4-dimethyl-H-pyrazole-5-carboxamide], the IC50 in experiment [1] was less than 10 µM; in experiment [2] it was 10 to 200 µM.

Take `Cc1n[nH]c(C(=O)Nc2cnc3[nH]c(-c4cccc(N5CCNCC5)c4)cc3c2)c1C` [P-2274, 3,4-dimethyl-N-[2-(3-piperazin-1-ylphenyl)-1H-pyrrolo[2,3-b]pyridin-5-yl]-1H-pyrazole-5-carboxamide]: the IC50 in experiment [1] was less than 10 µM; in experiment [2] it was 0.0001 to 1 µM.
